The IC50 is the midpoint of a concentration-inhibition curve. Low readings indicate greater potency in that assay, high ones weaker potency in that assay.

What all share (format): cell-based
The target in assay [1] is T1, TASK-3 (Homo sapiens, UniProt Q9NPC2).
T1 construct: gene KCNK9
Nature of the assay: whole-cell patch clamp, HEK-293 cells transfected with TASK-3. Background: Patch clamp records ionic current or voltage across a cell membrane.

The target in assay [2] is T2, TASK-1 (Homo sapiens, UniProt O14649).
T2 construct: gene KCNK3
T2 sequence (O14649 whole entry): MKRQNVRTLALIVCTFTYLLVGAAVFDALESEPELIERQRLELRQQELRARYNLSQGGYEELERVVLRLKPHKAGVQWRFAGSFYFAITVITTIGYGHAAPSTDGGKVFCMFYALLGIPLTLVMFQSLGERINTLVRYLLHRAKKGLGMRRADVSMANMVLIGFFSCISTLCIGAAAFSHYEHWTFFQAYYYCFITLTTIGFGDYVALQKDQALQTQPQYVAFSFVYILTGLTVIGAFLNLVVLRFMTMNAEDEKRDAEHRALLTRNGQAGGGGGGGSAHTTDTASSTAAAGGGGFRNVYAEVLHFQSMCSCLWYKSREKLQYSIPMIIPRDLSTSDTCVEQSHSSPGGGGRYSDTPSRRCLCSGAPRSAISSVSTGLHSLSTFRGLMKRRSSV
Nature of the assay: dose-response curve on human TASK-1 (electrophysiology; value not given).

The target of assay [3] is T2, TASK-1. The experiment in a line: dose-response of TASK-1 channel inhibition (electrophysiology; expression details for TASK-1 not given).

T1 sequence (Q9NPC2 whole entry): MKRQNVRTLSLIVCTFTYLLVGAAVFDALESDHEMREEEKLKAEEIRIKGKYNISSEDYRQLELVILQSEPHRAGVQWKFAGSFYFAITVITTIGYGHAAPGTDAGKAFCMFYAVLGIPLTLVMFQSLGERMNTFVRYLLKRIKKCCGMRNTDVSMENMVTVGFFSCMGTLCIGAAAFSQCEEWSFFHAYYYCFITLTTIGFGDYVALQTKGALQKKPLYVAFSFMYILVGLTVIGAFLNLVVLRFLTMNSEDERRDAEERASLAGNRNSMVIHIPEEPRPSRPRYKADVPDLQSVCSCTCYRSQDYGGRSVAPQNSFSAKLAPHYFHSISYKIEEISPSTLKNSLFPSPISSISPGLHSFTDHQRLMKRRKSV

As to `CC(C(=O)Nc1ccc(O)cc1F)c1cc2ccccc2o1` (stereo not shown) [DR16], the IC50 was 56.8 ± 3.9 µM in assay [1] and “Lead ligand DR16 blocks human TASK channels” in assay [2].

Turning to `CC(C(=O)Nc1ccc(O)cc1F)c1cc2cccc(NC(=O)c3ccc(O)cc3)c2o1` (stereo not shown) [DR16.1], the IC50 stood at 21.2 ± 5.5 µM in assay [3] and 14.2 ± 3.4 µM in assay [1].

For the origin of these results see publication PMC6720600, “Discovery of Novel TASK-3 Channel Blockers Using a Pharmacophore-Based Virtual Screening” (International Journal of Molecular Sciences, 2019).
